Source: patent publication US20030109418A1, “Methods for identifying compounds for inhibition of neoplastic lesions, and pharmaceutical compositions containing such compounds” (priority 1999, published 2003)
Where a name gives a salt, the structure may show the parent alone.

Legend:
HT-29 = assay: Growth inhibition, neutral red assay, HT-29; type: cell-based, human; settings: free base, five days
Experimental: Compound I's activity is not confined to activity against colon cancer cell lines or animal models of colon cancer. It has a broad range of anti-neoplastic effects in various neoplastic cell lines. Various types of human cancer cell lines were propagated under sterile conditions in RPMI 1640 medium with 10% fetal bovine serum, 2 mM L-glutamine and sodium bicarbonate. To determine growth inhibitory effects of Compound I, cells were seeded in 96-well plates at a density of 1000 cells per well. Twenty-four hours after plating, the cells were dosed with various concentrations of the free base of Compound I solubilized in DMSO (final concentration 0.1%). The effect of the drug on tumor cell growth was determined using the neutral red cytotoxicity assay following five days of continuous treatment. Neutral red is a dye that is selectively taken up by viable cells by an ATP-dependent transport mechanism.

[1] = Single, escalating dose human safety study; type: in vivo; settings: single escalating oral doses
[2] = system: premalignant lesions in mouse mammary gland organ culture; assay: Mammary gland organ culture model; type: cell-based; as to mammary gland organ culture: key: −: Not active; +: Slightly active; ++: Moderately active; +++: Strongly active; ++++: Highly active
[3] = system: Bronchial Epithelial Cells; assay: Growth inhibition, SRB assay, bronchial epithelial cells; type: cell-based; settings: Epithelial cell
Text: (§1) A compound's ability to inhibit tumor cell growth can be measured using the HT-29 human colon carcinoma cell line obtained from ATCC. HT-29 cells have previously been characterized as a relevant colon tumor cell culture model (Fogh, J., and Trempe, G. In: Human Tumor Cells in Vitro, J. Fogh (eds.), Plenum Press, New York, pp. 115-159, 1975). HT-29 cells are maintained in RPMI media supplemented with 5% fetal bovine calf serum (Gemini Bioproducts, Inc., Carlsbad, Calif.) and 2 mm glutamine, and 1% antibiotic-antimycotic in a humidified atmosphere of 95% air and 5% CO2 at 37° C. Briefly, HT-29 cells are plated at a density of 500 cells/well in 96 well microtiter plates and incubated for 24 hours at 37° C. prior to the addition of compound. […] After six days in culture, the cells are fixed by the addition of cold trichloroacetic acid to a final concentration of 10% and protein levels are measured using the sulforhodamine B (SRB) colorimetric protein stain assay as previously described by Skehan, P., Storeng, R., Scudiero, D., Monks, A., McMahon, J., Vistica, D., Warren, J. T., Bokesch, H., Kenney, S., and Boyd, M. R., “New Colorimetric Assay For Anticancer-Drug Screening,” J. Natl. Cancer Inst. […]
(§2) To show the effectiveness of this screening method on various forms of neoplasia, compounds were tested on numerous cell lines. […] The IC50 values were determined by the SRB assay. […]

HCT116, Colon = assay: Growth inhibition, SRB assay, HCT116; type: cell-based; settings: Homo sapiens, HCT-116
Text: as §1, §2

Row | Structure (SMILES) | GI50 (HT-29; Homo sapiens, HT-29, 120 h) [µM] | GI90 μM, HT-29 (HT-29) [µM] | side effects in humans [1] | inhibition of the formation of premalignant lesions ([2]; mammary gland organ culture) | Mammary Gland Organ Culture ([2]; qualitative activity profile) | IC50 [3] [µM] | IC50 (HCT116, Colon) [µM]
1 | CC1=C(CC(=O)NCc2ccccc2)c2cc(F)ccc2/C1=C\c1ccncc1 [Compound I, (Z)-5-fluoro-2-methyl-(4-pyridylidene)-3-(N-benzyl)indenylacetamide hydrochloride] | 2.1 | 8.0 | no significant side effects at any dose | – | – | – | –
2 | CC1=C(CC(=O)O)c2cc(F)ccc2/C1=C\c1ccc(S(C)(=O)=O)cc1 [Exisulind, 5-fluoro-2-methyl-1-(p-methylsulfonylbenzylidene)-3-indenylacetic acid] | – | – | – | effectively inhibit the formation of premalignant lesions | +++ | 90 | 90
